Measured values as given in PubChem BioAssay AID2060907 (Molecular Pharmacology Branch, DTP, NCI, 2025).
pIC50: −log10 of the molar value.

Tested on: 388556-164-R-J1-PDC complex spheroid viability
Assay: Anticancer human tumor 388556-164-R-J1-PDC patient-derived colon adenocarcinoma cell line growth inhibition [RAS]
Conditions: for pIC50: curve of first compound; for viability, T/C: stronger effect = lower value
Outline: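 Multi-cell-type spheroids: tumor cells plus HUVEC endothelial cells and mesenchymal stem cells. RAS-pathway inhibitors were combined with targeted agents, each dosed in half-log steps down from clinical Cmax, or from 10 microM when Cmax was unknown.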

[1] = second compound 0.000949 µM, first compound 0.00316 µM
[2] = second compound 0.000949 µM, first compound 0.01 µM
[3] = second compound 0.000949 µM, first compound 0.0316 µM
[4] = second compound 0.000949 µM, first compound 0.1 µM
[5] = second compound 0.000949 µM, first compound 0.316 µM
[6] = second compound 0.000949 µM, first compound 1 µM
[7] = second compound 0.003 µM, first compound 0.00316 µM
[8] = second compound 0.003 µM, first compound 0.01 µM
[9] = second compound 0.003 µM, first compound 0.0316 µM
[10] = second compound 0.003 µM, first compound 0.1 µM
[11] = second compound 0.003 µM, first compound 0.316 µM
[12] = second compound 0.003 µM, first compound 1 µM
[13] = second compound 0.00949 µM, first compound 0.00316 µM
[14] = second compound 0.00949 µM, first compound 0.01 µM
[15] = second compound 0.00949 µM, first compound 0.0316 µM
[16] = second compound 0.00949 µM, first compound 0.1 µM
[17] = second compound 0.00949 µM, first compound 0.316 µM
[18] = second compound 0.00949 µM, first compound 1 µM
[19] = second compound 0.03 µM, first compound 0.00316 µM
[20] = second compound 0.03 µM, first compound 0.01 µM
[21] = second compound 0.03 µM, first compound 0.0316 µM
[22] = second compound 0.03 µM, first compound 0.1 µM
[23] = second compound 0.03 µM, first compound 0.316 µM
[24] = second compound 0.03 µM, first compound 1 µM
[25] = second compound 0.0949 µM, first compound 0.00316 µM
[26] = second compound 0.0949 µM, first compound 0.01 µM
[27] = second compound 0.0949 µM, first compound 0.0316 µM
[28] = second compound 0.0949 µM, first compound 0.1 µM
[29] = second compound 0.0949 µM, first compound 0.316 µM
[30] = second compound 0.0949 µM, first compound 1 µM
[31] = second compound 0.3 µM, first compound 0.00316 µM
[32] = second compound 0.3 µM, first compound 0.01 µM
[33] = second compound 0.3 µM, first compound 0.0316 µM
[34] = second compound 0.3 µM, first compound 0.1 µM
[35] = second compound 0.3 µM, first compound 0.316 µM
[36] = second compound 0.3 µM, first compound 1 µM
[37] = second compound 0.000949 µM, first compound 3.16 µM
[38] = second compound 0.000949 µM, first compound 10 µM
[39] = second compound 0.003 µM, first compound 3.16 µM
[40] = second compound 0.003 µM, first compound 10 µM
[41] = second compound 0.00949 µM, first compound 3.16 µM
[42] = second compound 0.00949 µM, first compound 10 µM
[43] = second compound 0.03 µM, first compound 3.16 µM
[44] = second compound 0.03 µM, first compound 10 µM
[45] = second compound 0.0949 µM, first compound 3.16 µM
[46] = second compound 0.0949 µM, first compound 10 µM
[47] = second compound 0.3 µM, first compound 3.16 µM
[48] = second compound 0.3 µM, first compound 10 µM
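Also: spheroids exposed to compound for 7 days before readout.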
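For viability, T/C in this document: 100% = DMSO vehicle control luminescence.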

Molecule `C=CC(=O)Nc1cc(Nc2nccc(-c3cn(C)c4ccccc34)n2)c(OC)cc1N(C)CCN(C)C` + CCn1c(-c2cc(N3CCN(C)CC3)cnc2C(C)OC)c2c3cc(ccc31)-c1csc(n1)CC(NC(=O)C1CC1C)C(=O)N1CCCC(N1)C(=O)OCC(C)(C)C2 has a pIC50 (second compound 0.000949 µM) of 6.13, a pIC50 (second compound 0.003 µM) of 6.32 and a pIC50 (second compound 0.00949 µM) of 6.38. The pIC50 (second compound 0.03 µM) was 7.38, the pIC50 (second compound 0.0949 µM) was over 8.50 and the pIC50 (second compound 0.3 µM) was over 8.50. It also gave a viability, T/C [1] of 92.8%, a viability, T/C [2] of 92.1% and a viability, T/C [3] of 93.5%. It also gave a viability, T/C [4] of 79.8%, a viability, T/C [5] of 60.4% and a viability, T/C [6] of 46.4%. For the same molecule, the viability, T/C [7] was 91.7%, the viability, T/C [8] was 90.3% and the viability, T/C [9] was 75.3%. The viability, T/C [10] was 74%, the viability, T/C [11] was 56.4% and the viability, T/C [12] was 38.1%. The viability, T/C [13] was 79.2%, the viability, T/C [14] was 78.9% and the viability, T/C [15] was 65.8%. The viability, T/C [16] was 66.4%, the viability, T/C [17] was 60.5% and the viability, T/C [18] was 28.3%. The viability, T/C [19] was 62.1%, the viability, T/C [20] was 50.8% and the viability, T/C [21] was 54.9%. For the same molecule, the viability, T/C [22] was 45.8%, the viability, T/C [23] was 36.1% and the viability, T/C [24] was 27.3%. The viability, T/C [25] was 39.4%, the viability, T/C [26] was 42.7% and the viability, T/C [27] was 46.8%. It also gave a viability, T/C [28] of 33.1%, a viability, T/C [29] of 28.2% and a viability, T/C [30] of 22.8%. The viability, T/C [31] was 32.2%, the viability, T/C [32] was 28.5% and the viability, T/C [33] was 30.8%. The viability, T/C [34] was 25.1%, the viability, T/C [35] was 25.7% and the viability, T/C [36] was 24%.

`CC(C)NCC(C(=O)N1CCN(c2ncnc3c2C(C)CC3O)CC1)c1ccc(Cl)cc1` (stereo not drawn) + CCn1c(-c2cc(N3CCN(C)CC3)cnc2C(C)OC)c2c3cc(ccc31)-c1csc(n1)CC(NC(=O)C1CC1C)C(=O)N1CCCC(N1)C(=O)OCC(C)(C)C2 gave a pIC50 (second compound 0.000949 µM) of under 5.00, a pIC50 (second compound 0.003 µM) of under 5.00 and a pIC50 (second compound 0.00949 µM) of under 5.00. The pIC50 (second compound 0.03 µM) was 5.25, the pIC50 (second compound 0.0949 µM) was over 7.50 and the pIC50 (second compound 0.3 µM) was over 7.50. The viability, T/C [3] was 105%, the viability, T/C [4] was 107% and the viability, T/C [5] was 96.4%. For the same molecule, the viability, T/C [6] was 91.2%, the viability, T/C [37] was 95% and the viability, T/C [38] was 103%. For the same molecule, the viability, T/C [9] was 102%, the viability, T/C [10] was 96.5% and the viability, T/C [11] was 95.4%. For the same molecule, the viability, T/C [12] was 82%, the viability, T/C [39] was 84.9% and the viability, T/C [40] was 88%. It also gave a viability, T/C [15] of 86%, a viability, T/C [16] of 80% and a viability, T/C [17] of 69.4%. The viability, T/C [18] was 73.9%, the viability, T/C [41] was 84.8% and the viability, T/C [42] was 58.8%. It also gave a viability, T/C [21] of 58.2%, a viability, T/C [22] of 65.7% and a viability, T/C [23] of 57.1%. For the same molecule, the viability, T/C [24] was 56%, the viability, T/C [43] was 51.9% and the viability, T/C [44] was 47.8%. The viability, T/C [27] was 45.7%, the viability, T/C [28] was 46.5% and the viability, T/C [29] was 38.9%. For the same molecule, the viability, T/C [30] was 36.3%, the viability, T/C [45] was 40.9% and the viability, T/C [46] was 33%. For the same molecule, the viability, T/C [33] was 31.9%, the viability, T/C [34] was 31.5% and the viability, T/C [35] was 30.5%. For the same molecule, the viability, T/C [36] was 28.1%, the viability, T/C [47] was 24.4% and the viability, T/C [48] was 22.8%.

In the case of `CC(Nc1ccc2c(c1)OCCn1cc(N3C(=O)OCC3C(F)F)nc1-2)C(N)=O` (stereo not drawn) + CCn1c(-c2cc(N3CCN(C)CC3)cnc2C(C)OC)c2c3cc(ccc31)-c1csc(n1)CC(NC(=O)C1CC1C)C(=O)N1CCCC(N1)C(=O)OCC(C)(C)C2, the pIC50 (second compound 0.000949 µM) was under 5.00, the pIC50 (second compound 0.003 µM) was 5.46 and the pIC50 (second compound 0.00949 µM) was 6.07. It also gave a pIC50 (second compound 0.03 µM) of 7.01, a pIC50 (second compound 0.0949 µM) of over 7.50 and a pIC50 (second compound 0.3 µM) of over 7.50. For the same molecule, the viability, T/C [3] was 89.5%, the viability, T/C [4] was 82.3% and the viability, T/C [5] was 71.9%. The viability, T/C [6] was 66.6%, the viability, T/C [37] was 59.6% and the viability, T/C [38] was 49.6%. The viability, T/C [9] was 82.4%, the viability, T/C [10] was 79.2% and the viability, T/C [11] was 63.4%. It also gave a viability, T/C [12] of 62.6%, a viability, T/C [39] of 51.6% and a viability, T/C [40] of 40.2%. For the same molecule, the viability, T/C [15] was 79.3%, the viability, T/C [16] was 75% and the viability, T/C [17] was 48.5%. The viability, T/C [18] was 52.4%, the viability, T/C [41] was 43.8% and the viability, T/C [42] was 31.9%. For the same molecule, the viability, T/C [21] was 55.8%, the viability, T/C [22] was 48.4% and the viability, T/C [23] was 42%. For the same molecule, the viability, T/C [24] was 42.7%, the viability, T/C [43] was 34.7% and the viability, T/C [44] was 25.7%. The viability, T/C [27] was 42.3%, the viability, T/C [28] was 38% and the viability, T/C [29] was 31.6%. It also gave a viability, T/C [30] of 27.9%, a viability, T/C [45] of 22.7% and a viability, T/C [46] of 16.3%. The viability, T/C [33] was 28.2%, the viability, T/C [34] was 26.2% and the viability, T/C [35] was 22.9%. For the same molecule, the viability, T/C [36] was 21%, the viability, T/C [47] was 18.6% and the viability, T/C [48] was 14.2%.

In the case of `O=C(c1ccc(F)c(F)c1Nc1ccc(I)cc1F)N1CC(O)([C@@H]2CCCCN2)C1` + CCn1c(-c2cc(N3CCN(C)CC3)cnc2C(C)OC)c2c3cc(ccc31)-c1csc(n1)CC(NC(=O)C1CC1C)C(=O)N1CCCC(N1)C(=O)OCC(C)(C)C2, the pIC50 (second compound 0.000949 µM) was 6.88, the pIC50 (second compound 0.003 µM) was 7.07 and the pIC50 (second compound 0.00949 µM) was 7.44. The pIC50 (second compound 0.03 µM) was 8.08, the pIC50 (second compound 0.0949 µM) was over 8.50 and the pIC50 (second compound 0.3 µM) was over 8.50. The viability, T/C [1] was 96%, the viability, T/C [2] was 91% and the viability, T/C [3] was 72.6%. It also gave a viability, T/C [4] of 58.3%, a viability, T/C [5] of 31.8% and a viability, T/C [6] of 19.9%. For the same molecule, the viability, T/C [7] was 97.5%, the viability, T/C [8] was 83.3% and the viability, T/C [9] was 70.5%. It also gave a viability, T/C [10] of 46%, a viability, T/C [11] of 29.1% and a viability, T/C [12] of 19.3%. It also gave a viability, T/C [13] of 80.9%, a viability, T/C [14] of 69.2% and a viability, T/C [15] of 50.1%. The viability, T/C [16] was 38%, the viability, T/C [17] was 24.1% and the viability, T/C [18] was 18.7%. For the same molecule, the viability, T/C [19] was 63.6%, the viability, T/C [20] was 45.8% and the viability, T/C [21] was 36.9%. For the same molecule, the viability, T/C [22] was 30.1%, the viability, T/C [23] was 19.7% and the viability, T/C [24] was 18.6%. For the same molecule, the viability, T/C [25] was 35%, the viability, T/C [26] was 33.2% and the viability, T/C [27] was 30.3%. For the same molecule, the viability, T/C [28] was 18.4%, the viability, T/C [29] was 17.9% and the viability, T/C [30] was 18.8%. It also gave a viability, T/C [31] of 28.3%, a viability, T/C [32] of 26.1% and a viability, T/C [33] of 20.1%. The viability, T/C [34] was 16.9%, the viability, T/C [35] was 18.4% and the viability, T/C [36] was 17%.
